Measured values as given in US12691109B2, “Bifunctional aggregation-induced emission luminogen for monitoring and killing of multidrug-resistant bacteria” (The Hong Kong University of Science and Technology, priority 2018, dated 2026).

Tests used:
Type in all cases: cell-based
E. coli = assay: Light-enhanced bacteria killing, plate counting method
Method: (§1) FIGS. 15C-F are graphs depicting bacteria survival rates for bacteria that were incubated with TriPE-NT (10 μM) for 10 min, the bacteria suspensions (50 μL) were plated on agar plates and treated by white-light illumination (4 mW cm^−2) for 0, 2 and 30 min respectively. FIG. 15C is a graph plotting survival rate versus time of E. coli and MDR E. coli. FIG. 15D is a graph plotting survival rate versus time of K. pneumoniae and MDR K. pneumoniae. FIG. 15E is a graph plotting survival rate versus time of S. epidermidis and MDR S. epidermidis. FIG. 15F is a graph plotting survival rate versus time of S. aureus and MDR S. aureus.
(§2) FIGS. 16A-B are graphs depicting bacteria survival rates for bacteria that were incubated with TriPE-NT (0, 5, 10 μM) for 0 (S-0) and 10 (S-10) min, the bacteria suspensions (50 μL) were plated on agar plates and treated by white-light illumination (4 mW cm^−2) for 2 (I-2), 10 (I-10) and 30 (I-30) min respectively. FIG. 16A is a graph plotting the survival rate versus time of E. coli. FIG. 16B is a graph plotting the survival rate versus time of S. epidermidis.
(§3) The bacteria killing effect of TriPE-NT was evaluated on both wild and clinically isolated MDR bacteria by a traditional plate counting method. First, E. coli and S. epidermidis, as the representative of Gram-negative (G−) and Gram-positive (G+) bacteria, were used to determine the effective bactericidal concentration and illumination time. The bacteria were incubated with TriPE-NT (0, 5, 10 μM) for 0 and 10 min, the bacteria suspensions (50 μL) were plated on agar plates and treated by white-light illumination (4 mW cm^−2) for 2, 10 and 30 min respectively (FIGS. 16A-B). […] Thus, 10 μM TriPE-NT and light irradiation for 2 min or 30 min were set as experimental conditions in the following experiments.

S. epidermidis = assay: as above; conditions: 5 μM, light irradiation of 2 min
Method: as §1, §2, §3

K. pneumoniae [1] = assay: as above
Method: as §1, §3

MDR E. coli [2] = assay: as above
Method: as §1, §3

MDR K. pneumoniae [3] = assay: as above
Method: as §1, §3

MDR S. aureus [4] = assay: as above
Method: as §1, §3

MDR S. epidermidis [5] = assay: as above; conditions: in darkness, 10 μM TriPE-NT
Method: as §1, §3

S. aureus [6] = assay: as above
Method: as §1, §3

K. pneumoniae [7] = assay: Bacteria staining with TriPE-NT and PI, CLSM; conditions: 10 min
Method: (§4) FIG. 21B is a graph plotting stained percentages for E. coli, MDR E. coli, K. pneumoniae, MDR K. pneumoniae, S. epidermidis, MDR S. epidermidis, S. aureus, and MDR S. aureus.
(§5) FIG. 21C is a graph plotting percentage of dead bacteria stained by propidium iodine (PI) after the bacteria were incubated with 10 μM of TriPE-NT or PI for 10 min.
(§6) TriPE-NT: Ex=405 nm, Em=500-560 nm; PI: Ex=514, Em=600-700. The scale bar is equal to 5 μm.
(§7) To indicate the status of the bacteria after TriPE-NT treatment, the bacteria was incubated with commercial dead bacteria-staining fluorescent reagent propidium iodide (PI) and TriPE-NT at the same time. Thanks to the AIE characteristics and water solubility of TriPE-NT, there was almost no background fluorescence in the imaging field. E. coli and S. epidermidis, which emitted bright orange (TriPE-NT) or red (PI) fluorescence, are clearly visualized under confocal laser scanning microscope (CLSM) (FIG. 21A-C, 22-23). […] In comparison, relatively low percentage of Gram-negative bacteria were stained by TriPE-NT (e.g., 88.1±9.8% E. coli, 84.3±12.7% MDR E. coli, 47.9±7.7% K. pneumoniae and 35.8±4.9% MDR K. pneumoniae) (FIG. 21B, FIG. 22). […] By contrast, relatively low percentages of E. coli (22.1±12.2% E. coli) were co-stained by both TriPE-NT and PI (FIGS. 21A, C), which is also similar to other Gram-negative bacteria (15.3±3.7%, MDR E. coli, 8.8±3.2%, K. pneumoniae and 6.4±2.6% MDR K. pneumoniae) (FIGS. 21A & C, 22). The reason for this difference possibly is ascribed to the extra membrane of Gram-negative bacteria which is absent in Gram-positive bacteria. These observations also illustrated that both Gram-negative bacteria and Gram-positive bacteria are vulnerable to TriPE-NT treatment, the possible reason is that these bacteria with negatively charged membranes, could anchor, uptake, and aggregate the positively charged probe, which restricts the intramolecular motion of the probe and causes their fluorescence emission.

MDR E. coli [8] = assay: Bacteria staining with TriPE-NT and PI, CLSM; conditions: 10 min
Method: as §4, §5, §6, §7

MDR K. pneumoniae [9] = assay: Bacteria staining with TriPE-NT and PI, CLSM; conditions: 10 min
Method: as §4, §5, §6, §7

MDR S. aureus [10] = assay: Bacteria staining with TriPE-NT and PI, CLSM; conditions: 10 min
Method: as §4, §5
(§8) TriPE-NT: Ex=405 nm, Em=500-560 nm; PI: Ex=514, Em=600-700.
as §7

MDR S. epidermidis [11] = assay: Bacteria staining with TriPE-NT and PI, CLSM; conditions: 10 min
Method: as §4, §5, §8, §7

S. aureus [12] = assay: Bacteria staining with TriPE-NT and PI, CLSM; conditions: 10 min
Method: as §4, §5, §8, §7

[13] = 10 μM, white light 4 mW cm^−2, 30 min

COc1ccc(C(=Cc2ccc(-c3ccc4c5c(cccc35)C(=O)N(CCCCn3c[n+](Cc5ccc(F)cc5F)cn3)C4=O)cc2)c2ccc(OC)cc2)cc1 [TriPE-NT]
E. coli killed (E. coli; [13]): killed all and all | survival rate of E. coli (E. coli; in darkness, 10 μM TriPE-NT): approximately 6.8±0.6% | S. epidermidis killed (S. epidermidis): all S. epidermidis were killed | K. pneumoniae killed (K. pneumoniae [1]; [13]): > 90% | survival rate of K. pneumoniae (K. pneumoniae [1]; in darkness, 10 μM TriPE-NT): ~59.9±6.5% | MDR E. coli killed (MDR E. coli [2]; [13]): more than 96% | survival rate of MDR E. coli (MDR E. coli [2]; in darkness, 10 μM TriPE-NT): ~14.1±1.4% | MDR K. pneumoniae killed (MDR K. pneumoniae [3]; [13]): > 61% | survival rate of MDR K. pneumoniae (MDR K. pneumoniae [3]; in darkness, 10 μM TriPE-NT): ~74.4±3.7% | MDR S. aureus killed (MDR S. aureus [4]; [13]): > 97% | survival rate of MDR S. aureus (MDR S. aureus [4]; in darkness, 10 μM TriPE-NT): ~22.4±1.9% | killing of MDR S. epidermidis (MDR S. epidermidis [5]): killed nearly all | S. aureus killed (S. aureus [6]; [13]): > 98% | survival rate of S. aureus (S. aureus [6]; in darkness, 10 μM TriPE-NT): ~8.9±1.1% | percentage of K. pneumoniae co-stained by TriPE-NT and PI (dead bacteria) (K. pneumoniae [7]; 10 μM TriPE-NT and PI): 8.8±3.2% | percentage of K. pneumoniae stained by TriPE-NT (K. pneumoniae [7]; 10 μM): 47.9±7.7% | percentage of MDR E. coli co-stained by TriPE-NT and PI (dead bacteria) (MDR E. coli [8]; 10 μM TriPE-NT and PI): 15.3±3.7% | percentage of MDR E. coli stained by TriPE-NT (MDR E. coli [8]; 10 μM): 84.3±12.7% | percentage of MDR K. pneumoniae co-stained by TriPE-NT and PI (dead bacteria) (MDR K. pneumoniae [9]; 10 μM TriPE-NT and PI): 6.4±2.6% | percentage of MDR K. pneumoniae stained by TriPE-NT (MDR K. pneumoniae [9]; 10 μM): 35.8±4.9% | percentage of MDR S. aureus co-stained by TriPE-NT and PI (dead bacteria) (MDR S. aureus [10]; 10 μM TriPE-NT and PI): 57.4±1.3% | percentage of MDR S. aureus stained by TriPE-NT (MDR S. aureus [10]; 10 μM): 80.9±1.7% | percentage of MDR S. epidermidis co-stained by TriPE-NT and PI (dead bacteria) (MDR S. epidermidis [11]; 10 μM TriPE-NT and PI): 74.8±11.4% | percentage of MDR S. epidermidis stained by TriPE-NT (MDR S. epidermidis [11]; 10 μM): 92.9±6.6% | percentage of S. aureus co-stained by TriPE-NT and PI (dead bacteria) (S. aureus [12]; 10 μM TriPE-NT and PI): 67.3±12.2% | percentage of S. aureus stained by TriPE-NT (S. aureus [12]; 10 μM): 86.1±1.9%
